In US7601752B2, “Pyrrolidine derivatives” (Hoffmann-La Roche Inc., priority 2005, dated 2009):

What follows are molecules tested against T1, human factor Xa (Homo sapiens, UniProt P00742) (assay: Chromogenic peptide substrate (S-2222) assay, inhibition of coagulation factor Xa). Details: apparent dissociation constant by Cheng-Prusoff from IC50; human factor Xa 3 nM, substrate S-2222, HNPT buffer pH 7.8, room temperature.
T1 construct: purchased Enzyme Research Laboratories
Assay type: biochemical
Procedure: Factor Xa activity was measured spectrophotometrically in microtiter plates in a final volume of 150 μl using the following conditions: Inhibition of human factor Xa (Enzyme Research Laboratories) was tested at an enzyme concentration of 3 nM using the chromogenic substrate S-2222 (Chromogenix AB, Mölndal, Sweden) at […]. The reaction kinetics of the enzyme and the substrate were linear with both time and the enzyme concentration. The inhibitors were dissolved in DMSO and tested at various concentrations up to 100 μM. The inhibitors were diluted using HNPT buffer consisting of HEPES 100 mM, NaCl 140 mM, PEG 6000 0.1% and Tween 80 0.02%, pH 7.8. The cleavage of S-2222 by human factor Xa was followed at 405 nm for 5 minutes at room temperature. The velocity of the reaction was determined by the autoreader from the slope of the linear regression fit to 7 time points (1 minute). The initial velocity for each inhibitor concentration was determined by the slope of at least 4 time points in the linear phase by a linear regression fit […]. Apparent dissociation constants Ki were calculated according to Cheng and Prusoff [Cheng, Y. C.; Prusoff, W. H. Relationship between the inhibition constant (Ki) and the concentration of the inhibitor that causes 50 percent inhibition (IC50) of an enzyme reaction. Biochem. Pharmacol. 1973, 22, 3099-3108.] based on the IC50 and the respective Km, determined previously (Ki=IC50/(1+S/Km)). The Km for the substrate used was determined under the conditions of the test with at least 5 substrate concentrations ranging from 0.5 to 15 times Km. [Lottenberg R, Hall J A, Blinder M, Binder E P, Jackson C M., The action of thrombin on peptide p-nitroanilide substrates. Substrate selectivity and examination of hydrolysis under different reaction conditions. Biochim Biophys Acta. 1983 Feb. 15; 742(3):539-57]. According to Eadie [Eadie G. S. The inhibition of cholinesterase by physostigmine and prostigmine. J. Biol. Chem. 1942, 146, 85-93.], the Km for S-2222 amounted to 613 μM.

T1 sequence (P00742 235-488 limits assumed): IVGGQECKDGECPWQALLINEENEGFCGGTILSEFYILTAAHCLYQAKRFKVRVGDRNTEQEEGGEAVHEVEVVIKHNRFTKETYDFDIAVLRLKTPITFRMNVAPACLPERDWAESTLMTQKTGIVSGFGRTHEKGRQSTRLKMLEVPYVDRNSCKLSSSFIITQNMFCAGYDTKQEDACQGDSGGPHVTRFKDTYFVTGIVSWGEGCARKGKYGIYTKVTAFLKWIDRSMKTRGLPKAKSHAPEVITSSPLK
T1 sequence (P00742 41-179 partner limits assumed): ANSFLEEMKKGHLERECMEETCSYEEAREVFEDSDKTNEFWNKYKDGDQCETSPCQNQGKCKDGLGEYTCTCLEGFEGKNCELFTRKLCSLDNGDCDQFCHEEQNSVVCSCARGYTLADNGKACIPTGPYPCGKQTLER

O=C(N[C@H]1CC(C(=O)Nc2ccc(-n3ccccc3=O)cc2F)N(CCC(F)(F)F)C1)c1ccc(Cl)s1 (mixture of isomers) [Example 14, (S)-4-[(5-Chloro-thiophene-2-carbonyl)-amino]-1-(3,3,3-trifluoro-propyl)-pyrrolidine-2-carboxylic acid[2-fluoro-4-(2-oxo-2H-pyridin-1-yl)-phenyl]-amide] and N#CCN1C[C@@H](NC(=O)c2ccc(Cl)s2)C[C@H]1C(=O)Nc1ccc(-n2ccccc2=O)cc1F [Example 6, (2S,4S)-4-[(5-Chloro-thiophene-2-carbonyl)-amino]-1-cyanomethyl-pyrrolidine-2-carboxylic acid[2-fluoro-4-(2-oxo-2H-pyridin-1-yl)-phenyl]-amide] are within 1.5-fold of each other in Ki: 0.042 µM for the first, 0.046 µM for the second.

Compared with O=C(N[C@@H]1CN[C@H](C(=O)Nc2ccc(-n3ccccc3=O)cc2F)C1)c1ccc(Cl)s1 [Example 2, (2S,4S)-4-[(5-Chloro-thiophene-2-carbonyl)-amino]-pyrrolidine-2-carboxylic acid[2-fluoro-4-(2-oxo-2H-pyridin-1-yl)-phenyl]-amide trifluoro-acetate], CC(C)(C)OC(=O)N1C[C@@H](NC(=O)c2ccc(Cl)s2)C[C@H]1C(=O)Nc1ccc(-n2ccncc2=O)cc1F [Example 21, (2S,4S)-4-[(5-Chloro-thiophene-2-carbonyl)-amino]-2-[2-fluoro-4-(2-oxo-2H-pyrazin-1-yl)-phenylcarbamoyl]-pyrrolidine-1-carboxylic acid tert-butyl ester] is 2.8-fold higher in Ki: 0.023 µM for the first, 0.065 µM for the second.
